From patent publication US8597903B2, “Biotinidase assay” (Wallac Oy, priority 2009, dated 2013)

Tests used:
biotinidase = target: T1, biotinidase (Homo sapiens, UniProt P43251); assay: Heterogenous biotinidase assay (DELFIA); format: biochemical; details: 10 nM substrate, blood spots, +37° C. for 2 hours, Eu signal by time-resolved fluorometer (FIG. 1-3)
T1 construct: The blood spots (diameter 3.2 mm) were punched to the wells; from tissue; host or cells: dried blood spots (whole blood)
T1 sequence (P43251 22-523): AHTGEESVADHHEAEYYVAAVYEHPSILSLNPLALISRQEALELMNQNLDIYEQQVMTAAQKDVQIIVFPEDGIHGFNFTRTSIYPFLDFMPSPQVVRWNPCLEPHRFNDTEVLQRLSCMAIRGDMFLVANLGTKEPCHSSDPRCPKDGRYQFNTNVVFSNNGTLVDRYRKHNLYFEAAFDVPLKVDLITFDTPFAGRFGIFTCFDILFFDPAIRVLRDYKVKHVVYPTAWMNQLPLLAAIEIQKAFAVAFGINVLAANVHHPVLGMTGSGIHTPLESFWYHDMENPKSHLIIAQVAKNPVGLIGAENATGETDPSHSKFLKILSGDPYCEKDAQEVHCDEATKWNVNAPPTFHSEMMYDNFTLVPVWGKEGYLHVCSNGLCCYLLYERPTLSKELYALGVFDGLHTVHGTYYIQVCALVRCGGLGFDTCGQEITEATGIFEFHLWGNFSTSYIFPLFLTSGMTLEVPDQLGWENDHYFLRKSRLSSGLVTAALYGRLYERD
Protocol: A heterogenous assay is based on the use of streptavidin-specific antibody, streptavidin and biotinidase substrates (compounds 3, 5 and 7). Accordingly, 200 μA of anti-streptavidin antibody (1 μg per well, Novus Biologicals cat. No. NB200-448) was pipetted to the wells of the microplate in coating buffer (50 mM TRIS pH 7.4+50 mM NaCl). The plate was incubated at RT for 3 h. After that the plate was washed 2 times with Delfia Wash solution. The blood spots (diameter 3.2 mm) were punched to the wells. 10 nM of biotinidase substrate was added to the wells in reaction buffer (50 mM MES pH 6, 0.05% BSA, 0.01% TWEEN, 50 mM NaCl). The plate was incubated with slow shaking at +37° C. for 2 hours. 100 μA 20 nM streptavidin in reaction buffer was added into the wells. The plate was incubated for 1 hour at RT with slow shaking. The plate was washed for 4 times with Delfia Wash solution. 200 μA of Delfia Inducer was added to the wells and incubated for 15 minutes at RT. The Eu signal was measured with a time-resolved fluorometer. The more there is biotinidase enzyme in the sample the lower the Eu signal is.

[1] = Storage stability of the substrate; format: physicochemical; details: prolonged storage at ambient temperature
Protocol: Biocytin (8, 5 mg, 13 μmol) and the isothiocyanate chelate 9 (23 mg, 33 μmol) synthesized as disclosed in U.S. Pat. No. 4,920,195, were dissolved in the mixture of pyridine, water and triethylamine (9:1.5:01, v/v/v; 250 μL) and the mixture was stirred overnight at rt. The product was isolated by precipitation with acetone and purified with HPLC. Compound 10: ESI-TOF MS found, 1047.13; calcd for C40H46EuN8O12S^−1047.18.

| stability on storage [1] | SMILES | function as a substrate for the enzyme in a biotinidase assay (biotinidase) |
| --- | --- | --- |
| – | O=C(O)CN(CCN(CC(=O)O)CC(Cc1ccc(NC(=O)CCCCC2SCC3NC(=O)NC32)cc1)N(CC(=O)O)CC(=O)O)CC(=O)O (stereo not drawn) [Compound 3] | does not function as a substrate |
| – | O=C(O)CN(CCN(CC(=O)O)CC(Cc1ccc(NC(=O)CCCCCNC(=O)CCCCC2SCC3NC(=O)NC32)cc1)N(CC(=O)O)CC(=O)O)CC(=O)O (stereo not drawn) [Compound 5] | functions as a favorable substrate |
| prone to Edman degradation | O=C(O)CN(CC(=O)O)Cc1cc(C#Cc2ccc(NC(=S)NC(CCCCNC(=O)CCCCC3SCC4NC(=O)NC43)C(=O)O)cc2)cc(CN(CC(=O)O)CC(=O)O)n1 (stereo not drawn) [Compound 10] | – |
